Test results from publication PMC10944868, “Synthesis, biological and computational evaluation of novel cyanomethyl vinyl ether derivatives” (Frontiers in Pharmacology, 2024).

Columns and labels:
Type in all cases: cell-based
[1] = system: A549 (carcinomic human alveolar basal epithelial cells); assay: Cytotoxicity assay (CCK8), A549; conditions: 48 h
Experimental: (§1) Cells were cultured according to the supplier´s instructions (ATCC technologies, A-549 (CCL-185), BT-20 (HTB-19), SKOV3 (HTB-77), HCT116 (CCL-247), MRC5 (CCL-171). Cells were seeded in 96-well plates at a density of 2–2.5 × 10^3 cells per well and incubated overnight in 0.1 mL of media supplied with 10% Fetal Bovine Serum (Lonza) in 5% CO2 incubator at 37°C. On day 2, drugs were added and samples were incubated for 48 h. After treatment, 10 µL of cell counting kit-8 was added into each well for additional 2 h incubation at 37°C. The absorbance of each well was determined by an Automatic Elisa Reader System at 450 nm wavelength.

[2] = system: MRC-5 (non-malignant lung fibroblasts); assay: Cytotoxicity assay (CCK8), MRC5; conditions: Homo sapiens, MRC5 non-cancerous cells, 48 h
Experimental: as §1

[3] = system: HCT-116 (human colorectal carcinoma); assay: Cytotoxicity assay (CCK8), HCT116; conditions: HCT116 cells, 48 h
Experimental: as §1

[4] = system: SKOV3 (human ovarian carcinoma); assay: Cytotoxicity assay (CCK8), SKOV3; conditions: SK-OV-3, SKOV3 cells, 48 h
Experimental: as §1

[5] = system: BT20 (human breast carcinoma); assay: Cytotoxicity assay (CCK8), BT20; conditions: BT20 cells
Experimental: as §1

Work on `COC(=O)/C=C\OC(C#N)c1cccs1` (stereo not shown) [Compound 10Z] yielded an IC50 [1] of over 50 µM, an IC50 [2] of over 50 µM and an IC50 [3] of over 50 µM. It also gave an IC50 [4] of over 50 µM.

In the case of `CCCCCCC(C#N)O/C=C\C(=O)OC` (stereo not shown) [Compound 2Z], the IC50 [1] is reported as over 50 µM, the IC50 [2] is reported as over 50 µM and the IC50 ([5]; Homo sapiens, BT-20, 48 h) is reported as 17.3 ± 3.44 µM. For the same compound, the IC50 [3] was over 50 µM and the IC50 [4] was over 50 µM.

Compound `CCCCCCC(C#N)O/C=C/C(=O)OC` (stereo not shown) [Compound 2E] has an IC50 [1] of over 50 µM, an IC50 [2] of over 50 µM and an IC50 ([5]; Homo sapiens, BT-20, 48 h) of 15.8 ± 2.9 µM. It also gave an IC50 [3] of over 50 µM and an IC50 [4] of 41.6 ± 2.46 µM.

Work on `COC(=O)/C=C\OC(C#N)c1ccccc1` (stereo not shown) [Compound 5Z] yielded an IC50 [1] of over 50 µM, an IC50 [2] of over 50 µM and an IC50 ([5]; Homo sapiens, BT-20, 48 h) of 19.9 ± 3.42 µM. It also gave an IC50 [3] of over 50 µM and an IC50 [4] of 29.8 ± 2.09 µM.

With `COC(=O)/C=C\OC(C#N)c1ccc(OC)cc1` (stereo not shown) [Compound 6Z] the IC50 [1] was over 50 µM, the IC50 [2] was over 50 µM and the IC50 ([5]; Homo sapiens, BT-20, 48 h) was 12.6 ± 1.76 µM. For the same compound, the IC50 [3] was over 50 µM and the IC50 [4] was 31.3 ± 4.42 µM.

`COC(=O)/C=C\OC(C#N)c1cc2ccccc2c2ccccc12` (stereo not shown) [Compound 12Z] showed an IC50 [1] of over 50 µM, an IC50 [2] of over 50 µM and an IC50 ([5]; Homo sapiens, BT-20, 48 h) of 11.9 ± 1.1 µM. It also gave an IC50 [3] of over 50 µM and an IC50 [4] of 11.9 ± 1.88 µM.

`COC(=O)/C=C\OC(C#N)c1ccc(C)cc1` (stereo not shown) [Compound 9Z] gave an IC50 [1] of over 50 µM, an IC50 [2] of over 50 µM and an IC50 ([5]; Homo sapiens, BT-20, 48 h) of 20.2 ± 3.78 µM. For the same compound, the IC50 [3] was over 50 µM and the IC50 [4] was over 50 µM.

`COC(=O)/C=C/OC(C#N)c1cccs1` (stereo not shown) [Compound 10E] was tested, and the IC50 [1] was over 50 µM, the IC50 [2] was over 50 µM and the IC50 [3] was over 50 µM. It also gave an IC50 [4] of over 50 µM.

Compound `CCC(C#N)O/C=C/C(=O)OC` (stereo not shown) [Compound 1E] has an IC50 [1] of over 50 µM, an IC50 [2] of over 50 µM and an IC50 ([5]; Homo sapiens, BT-20, 48 h) of 7.07 ± 1.28 µM. The IC50 [3] was over 50 µM and the IC50 [4] was 2.92 ± 0.28 µM.

`COC(=O)/C=C/OC(C#N)c1ccc(C)cc1` (stereo not shown) [Compound 9E] showed an IC50 [1] of 21.4 ± 0.83 µM, an IC50 [2] of over 50 µM and an IC50 ([5]; Homo sapiens, BT-20, 48 h) of 4.98 ± 2.77 µM. For the same compound, the IC50 [3] was over 50 µM and the IC50 [4] was 8.08 ± 2.08 µM.

`CCCOC(=O)/C=C/OC(C#N)c1ccccc1` (stereo not shown) [Compound 3E, Propyl (E)-3-(cyano(phenyl)methoxy)acrylate] gave an IC50 [1] of over 50 µM, an IC50 [2] of over 50 µM and an IC50 [3] of over 50 µM. For the same compound, the IC50 [4] was over 50 µM.

`COC(=O)/C=C/OC(C#N)c1ccc(F)cc1` (stereo not shown) [Compound 8E] was tested, and the IC50 [1] was over 50 µM, the IC50 [2] was over 50 µM and the IC50 [3] was over 50 µM. For the same compound, the IC50 [4] was over 50 µM.

For `COC(=O)/C=C/OC(C#N)c1ccc(C(F)(F)F)cc1` (stereo not shown) [Compound 7E], the IC50 [1] was 29.3 ± 1.1 µM, the IC50 [2] was over 50 µM and the IC50 ([5]; Homo sapiens, BT-20, 48 h) was 10 ± 2.17 µM. For the same compound, the IC50 [3] was over 50 µM and the IC50 [4] was 2.62 ± 0.53 µM.

Compound `COC(=O)/C=C\OC(C#N)c1ccc(C(F)(F)F)cc1` (stereo not shown) [Compound 7Z] has an IC50 [1] of over 50 µM, an IC50 [2] of over 50 µM and an IC50 ([5]; Homo sapiens, BT-20, 48 h) of over 50 µM. For the same compound, the IC50 [3] was over 50 µM and the IC50 [4] was over 50 µM.

Compound `CCC(C#N)O/C=C\C(=O)OC` (stereo not shown) [Compound 1Z] has an IC50 [1] of over 50 µM, an IC50 [2] of over 50 µM and an IC50 ([5]; Homo sapiens, BT-20, 48 h) of over 50 µM. It also gave an IC50 [3] of over 50 µM and an IC50 [4] of over 50 µM.

With `COC(=O)/C=C/OC(C#N)c1ccc(OC)cc1` (stereo not shown) [Compound 6E] the IC50 [1] was over 50 µM, the IC50 [2] was over 50 µM and the IC50 ([5]; Homo sapiens, BT-20, 48 h) was 27.8 ± 5.31 µM. For the same compound, the IC50 [3] was over 50 µM and the IC50 [4] was 12.4 ± 1.18 µM.

For `CCCOC(=O)/C=C\OC(C#N)c1ccccc1` (stereo not shown) [Compound 3Z, Propyl (Z)-3-(cyano(phenyl)methoxy)acrylate], the IC50 [1] was over 50 µM, the IC50 [2] was over 50 µM and the IC50 [3] was over 50 µM. For the same compound, the IC50 [4] was over 50 µM.

`COC(=O)/C=C/OC(C#N)c1cc2ccccc2c2ccccc12` (stereo not shown) [Compound 12E] was tested, and the IC50 [1] was 9.89 ± 0.25 µM, the IC50 [2] was 14.4 ± 0.86 µM and the IC50 ([5]; 48 h) was 7 ± 1.96 µM. It also gave an IC50 ([5]; Homo sapiens, BT-20, 48 h) of 9.89 ± 0.25 µM, an IC50 [3] of 16.1 ± 1.2 µM and an IC50 [4] of 7.35 ± 1.42 µM.

Compound `COC(=O)/C=C/OC(C#N)c1ccccc1` (stereo not shown) [Compound 5E] has an IC50 [1] of 18.9 ± 1.2 µM, an IC50 [2] of over 50 µM and an IC50 ([5]; Homo sapiens, BT-20, 48 h) of 8.31 ± 1.26 µM. It also gave an IC50 [3] of over 50 µM and an IC50 [4] of 3.84 ± 1.56 µM.

Work on `CC(C)OC(=O)/C=C/OC(C#N)c1ccccc1` (stereo not shown) [Compound 4E, Isoropyl (E)-3-(cyano(phenyl)methoxy)acrylate] yielded an IC50 [1] of over 50 µM, an IC50 [2] of over 50 µM and an IC50 [3] of over 50 µM. The IC50 [4] was over 50 µM.

`CC(C)OC(=O)/C=C\OC(C#N)c1ccccc1` (stereo not shown) [Compound 4Z, Isoropyl (Z)-3-(cyano(phenyl)methoxy)acrylate] showed an IC50 [1] of over 50 µM, an IC50 [2] of over 50 µM and an IC50 [3] of over 50 µM. For the same compound, the IC50 [4] was over 50 µM.

In the case of `COC(=O)/C=C\OC(C#N)c1ccc(F)cc1` (stereo not shown) [Compound 8Z], the IC50 [1] is reported as over 50 µM, the IC50 [2] is reported as over 50 µM and the IC50 [3] is reported as over 50 µM. For the same compound, the IC50 [4] was over 50 µM.
